The values below come from article PMC9594046, “Identification of Histone Peptide Binding Specificity and Small-Molecule Ligands for the TRIM33α and TRIM33β Bromodomains” (ACS Chemical Biology, 2022).

Common to all, as to test: AlphaScreen dose-response displacement of biotinylated H3 peptide
For one experiment, the target named is T1, TRIM24 PHD-BRD (Homo sapiens, UniProt O15164).
T1 sequence (O15164 with tags, fused parts or gaps): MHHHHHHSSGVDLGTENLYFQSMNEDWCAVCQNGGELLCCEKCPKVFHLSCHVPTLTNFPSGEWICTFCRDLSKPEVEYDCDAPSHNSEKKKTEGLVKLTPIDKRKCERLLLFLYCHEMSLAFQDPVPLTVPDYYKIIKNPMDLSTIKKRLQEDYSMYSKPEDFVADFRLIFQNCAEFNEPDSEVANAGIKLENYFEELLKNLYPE
As to conditions: TRIM24 IC50 (AlphaScreen).

In the next experiment the target is T2, TRIM33β PHD-BRD (Homo sapiens, UniProt Q9UPN9).
T2 sequence (Q9UPN9 888-1110 isoform Q9UPN9-2 limits assumed): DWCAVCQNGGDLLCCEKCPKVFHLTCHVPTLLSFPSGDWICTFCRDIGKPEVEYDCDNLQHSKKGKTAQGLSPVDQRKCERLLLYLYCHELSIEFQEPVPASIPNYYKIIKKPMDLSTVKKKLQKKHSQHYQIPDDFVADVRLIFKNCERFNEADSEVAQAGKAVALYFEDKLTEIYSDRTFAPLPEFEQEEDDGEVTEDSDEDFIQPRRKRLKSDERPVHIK

A further experiment has as its target T3, TRIM33α PHD-BRD (Homo sapiens, UniProt Q9UPN9).
T3 sequence (Q9UPN9 888-1127): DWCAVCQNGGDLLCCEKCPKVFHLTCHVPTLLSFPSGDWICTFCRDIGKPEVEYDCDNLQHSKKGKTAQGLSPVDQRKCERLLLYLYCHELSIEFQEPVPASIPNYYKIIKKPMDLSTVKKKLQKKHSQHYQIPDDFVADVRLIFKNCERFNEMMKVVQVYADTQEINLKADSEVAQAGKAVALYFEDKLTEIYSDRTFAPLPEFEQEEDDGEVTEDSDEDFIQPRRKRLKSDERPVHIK
As to conditions: TRIM33α IC50 (AlphaScreen).

The mark [1] stands for this setting: peptide in assay H31-27K9Me3 (PHD).
Where [2] appears, read: peptide in assay H31-27K9Me3K18Ac (DUAL).
The mark [3] stands for this setting: peptide in assay H31-27K18Ac (BRD).

Method for TRIM24 PHD-BRD: (§1) To establish an AlphaScreen assay,[13],[50],[51] the PHD-BRD cassettes of TRIM24 and both TRIM33 isoforms were expressed with an N-terminal His6 tag attached (CD spectra for these constructs are shown in Figure S9).
(§2) Assay buffer was freshly prepared each day by supplementing HEPES buffer with BSA, the pH was
(§3) adjusted to 7.6 and filter sterilized through a 0.22 µm filter, and stored at 4 °C until use.
(§4) steps, the plate was sealed, shaken for 10 sec at 600 rpm on a plate oscillator, and incubated at room
(§5) in triplicate, as point concentrations or serial buffer dilutions from 50 mM DMSO solutions.
(§6) peptide mix (7 µL) was dispensed into each well using a Thermo-Fisher electronic multi-channel
(§7) pipette, and incubated for 30 min. AlphaScreen bead mix (8 µL; 25 µg/mL of acceptor and donor beads)
(§8) was added to each well, taking adequate precautions to avoid light exposure, before being incubated for
(§9) 1 h. The plate was read using a Synergy™ 2 MultiMode Microplate Reader using the built-in
(§10) Single shot screening was performed in triplicate.
(§11) <0.5% DMSO. Inhibition is reported as a reduction in signal arising from peptide-bromodomain
(§12) interaction, normalised to a DMSO control. Signal response curves were obtained for peptides or
(§13) compounds in triplicate, with serial 1:2 dilutions. Samples containing buffer or DMSO in place of
(§14) compound were included in all assays for normalisation. Data were processed by fitting a four-
(§15) parameter equation shown below to calculate IC50 values using GraFit version 7.0.32 or GraphPad Prism
(§16) 𝑌 = 𝑀𝑖𝑛𝑖𝑚𝑢𝑚 + 𝑀𝑎𝑥𝑖𝑚𝑢𝑚 − 𝑚𝑖𝑛𝑖𝑚𝑢𝑚 ,𝑤ℎ𝑒𝑟𝑒 𝑋 = log (𝑐𝑜𝑚𝑝𝑜𝑢𝑛𝑑 𝑐𝑜𝑛𝑐𝑒𝑛𝑡𝑟𝑎𝑡𝑖𝑜𝑛) 1 + 10("#$%&!"’()(*+,, .,/01)
(§17) Assay buffer was prepared as above. For incubation steps, the plate was sealed, shaken for 10 sec at
(§18) 600 rpm on a plate oscillator, and incubated at room temperature in the dark. Peptides (5 µL) were
(§19) dilutions from 100 µM HEPES buffer stock solutions. Protein (7 µL) was dispensed into each well
(§20) using a Thermo-Fisher electronic multi-channel pipette, and incubated for 30 min. AlphaScreen bead
(§21) mix (8 µL; 25 µg/mL of acceptor and donor beads) was added to each well, avoiding light exposure,
(§22) before being incubated for 1 h. The plate was read using a Synergy™ 2 MultiMode Microplate Reader
(§23) Ni2+ chelate acceptor and streptavidin donor beads were prepared as a mixture in a 1:300 or 1:400
(§24) dilution as required (0.005–0.007 mg/mL FAC); biotinylated peptide employed, and final assay
(§25) concentrations were as detailed in table below. Assay well volume was 20 µL.
(§26) Peptides were supplied as 1–9 mg quantities with >95% purity (as determined by HPLC; Cambridge
(§27) Research Biochemicals or Genscript). Residual water and counter ions were predicted to comprise 20%
(§28) of the net mass, and peptides were dissolved to 10, 1.0, and 0.1 mM stocks in buffer (50 mM HEPES,
(§29) 500 mM NaCl; pH 7.6) before being stored at -80 °C in 5 µL aliquots. A terminal tyrosine residue was
(§30) incorporated into the peptide structure to allow for accurate quantification of concentration.
Method for TRIM33α PHD-BRD: as §1, §2, §3, §4, §5, §6, §7, §8, §9, §10, §11, §12, §13, §14, §15, §16, §17, §18, §19, §20, §21, §22, §23, §24, §25, §26, §27, §28, §29, §30
Method for TRIM33β PHD-BRD: as §1, §2, §3, §4, §5, §6, §7, §8, §9, §10, §11, §12, §13, §14, §15, §16, §17, §18, §19, §20, §21, §22, §23, §24, §25, §26, §27, §28, §29, §30

On to `COC(=O)c1ccc2nc(-c3c[nH]c(C)n3)c(NC3CCCCC3)n2c1` [Compound 6], for which the IC50 (as a rule, the midpoint of a concentration-inhibition curve) on TRIM24 PHD-BRD (setting [1]) was determined as 17.1 µM; on TRIM24 PHD-BRD (setting [2]) it was 11.1 µM; at TRIM24 PHD-BRD (setting [3]), 20 µM; on TRIM33β PHD-BRD (setting [1]) it was 6.69 µM; on TRIM33β PHD-BRD (setting [2]), 8.86 µM; at TRIM33β PHD-BRD (setting [3]) it was 7.91 µM. The results for the IC50 on TRIM33α PHD-BRD (setting [1]), on TRIM33α PHD-BRD (setting [2]) and on TRIM33α PHD-BRD (setting [3]) were above 250 µM, 75.1 µM and 16.6 µM, respectively.
Regarding `CC(C)(C)Nc1c(-c2c[nH]c3ncccc23)nc2ccccn12` [Compound 7], the IC50 is 105 µM on TRIM24 PHD-BRD (setting [1]); 58 µM on TRIM24 PHD-BRD (setting [2]); 43.8 µM on TRIM24 PHD-BRD (setting [3]); above 250 µM at TRIM33β PHD-BRD (setting [1]); above 250 µM at TRIM33β PHD-BRD (setting [2]); above 250 µM at TRIM33β PHD-BRD (setting [3]). Also, the IC50 on TRIM33α PHD-BRD (setting [1]), on TRIM33α PHD-BRD (setting [2]) and on TRIM33α PHD-BRD (setting [3]) was above 250 µM throughout.
As to `Cc1nc[nH]c1-c1nc2ccccn2c1NC1CCCCC1` [Compound 5], the IC50 at TRIM24 PHD-BRD (setting [1]) amounted to 3.57 µM; on TRIM24 PHD-BRD (setting [2]) it was 3.32 µM; on TRIM24 PHD-BRD (setting [3]), 4.21 µM; at TRIM33β PHD-BRD (setting [1]) it was 3.37 µM; at TRIM33β PHD-BRD (setting [2]), 3.11 µM; at TRIM33β PHD-BRD (setting [3]), 3.16 µM. Moreover, the results for the IC50 on TRIM33α PHD-BRD (setting [1]), on TRIM33α PHD-BRD (setting [2]) and at TRIM33α PHD-BRD (setting [3]) were 2.71 µM, 1.68 µM and 2.74 µM, respectively.
